Earlier results, collected in US20220380769A1 (priority 2020, published 2022).

Tested on: avian H5N1 influenza virus clades
Conditions: in vivo; cited from earlier work

In the case of rIn.r(C12U)n [Rintatolimod], the “protection from lethal challenge doses of three avian H5N1 influenza virus clades” value is given as “able to protect”.
